A word on the IC50: it is the concentration that inhibits the measured activity by half.

This passage reports Activity and IC50 results from ChEMBL document CHEMBL5230133, “Selective Estrogen Receptor Degraders (SERDs): A Promising Strategy for Estrogen Receptor Positive Endocrine-Resistant Breast Cancer” (J Med Chem, 2020).

The test system of test [1] is Rattus norvegicus. Description: Anti-uterotrophic activity in rat at 10 mg/kg, sc administered once daily for 3 days relative to control. The following applies: time 3 day. Type of test: functional.
Test [2] has as its system MCF7. Description: Antiproliferative activity against human MCF7 cells. Type of test: functional, cell-based.
Test [3] can be described thus: Inhibition of ESR1 Y537S mutant LBD (unknown origin) transfected in SK-BR-3 cells measured after 22 hrs by luciferase assay. Type of test: cell-based. As to conditions: Homo sapiens, SK-BR-3, 22 h.
Test [4] can be described thus: Downregulation of ER in human MCF7 cells assessed as […] measured after 2 days EIA assay. Type of test: functional, cell-based. As to conditions: MCF7, 48 h.
Test [5] addresses T1, Estrogen receptor (Homo sapiens, UniProt P03372).
T1 sequence (P03372 whole entry): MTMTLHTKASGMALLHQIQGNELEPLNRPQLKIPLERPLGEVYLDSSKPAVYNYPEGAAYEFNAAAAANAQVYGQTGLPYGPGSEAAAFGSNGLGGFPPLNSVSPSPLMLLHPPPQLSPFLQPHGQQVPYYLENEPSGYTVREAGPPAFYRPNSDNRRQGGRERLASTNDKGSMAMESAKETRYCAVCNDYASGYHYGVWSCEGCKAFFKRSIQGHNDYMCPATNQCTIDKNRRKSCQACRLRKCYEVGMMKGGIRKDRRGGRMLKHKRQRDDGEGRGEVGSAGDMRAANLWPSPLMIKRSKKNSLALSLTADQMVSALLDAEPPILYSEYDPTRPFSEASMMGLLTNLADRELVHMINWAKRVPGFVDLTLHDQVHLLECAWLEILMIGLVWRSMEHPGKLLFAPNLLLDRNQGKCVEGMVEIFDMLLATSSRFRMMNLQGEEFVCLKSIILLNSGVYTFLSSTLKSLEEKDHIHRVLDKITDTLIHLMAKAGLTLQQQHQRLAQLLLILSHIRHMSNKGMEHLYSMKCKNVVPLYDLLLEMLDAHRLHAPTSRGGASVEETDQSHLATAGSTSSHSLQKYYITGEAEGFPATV
Description: Inhibition of ER (unknown origin) by luciferase reporter assay. In general terms: In a reporter assay the amount or activity of a reporter protein is the signal.

The subject of test [6] is MCF7. The test can be described thus: Antiproliferative activity against human MCF7 cells assessed as reduction in cell proliferation. Type of test: functional, cell-based.

As for `CCCCN(C)C(=O)CCCCCCCCCC[C@@H]1Cc2cc(O)ccc2C2CC[C@@]3(C)C(CC[C@@H]3O)C21` (some centres not stated), the Activity in test [1] came to 105%.

`CN(CCCCC[C@@H]1Cc2cc(O)ccc2C2C1C1CC[C@H](O)[C@@]1(C)C[C@@H]2F)CCCSCCCC(F)(F)C(F)(F)F` (some centres not stated): in test [2], the IC50 was determined as 2.4 nM. Same read-out and setting: the value for `CN(CCCCCCC(F)(F)C(F)(F)C(F)(F)C(F)(F)F)CCCCC[C@@H]1Cc2cc(O)ccc2C2C1C1CC[C@H](O)[C@@]1(C)C[C@@H]2F` (some centres not stated) was 1.9 nM. `CCCCNC(=O)CCCCCCCCCC[C@@H]1Cc2cc(O)ccc2C2CC[C@@]3(C)C(CC[C@@H]3O)C21` (some centres not stated): in test [1], the Activity was determined as 100%. Turning to `CC1=C(c2ccc(O)cc2)[C@H](c2ccc(OCCN3CC[C@@H](C)C3)cc2)Oc2cc(O)ccc21`, the IC50 amounted to 8 nM in test [3] and 9.2 nM in test [2].

As for `C[C@]12CC[C@@H]3c4ccc(O)cc4C[C@@H](CCCCCCCCC[S+]([O-])CCCC(F)(F)C(F)(F)F)[C@H]3[C@@H]1CC[C@@H]2O` (some centres not stated) [FULVESTRANT], the IC50 in test [3] worked out at 22 nM; in test [2], 0.35 nM. The compound `C[C@]12C[C@H](c3ccc(OCCCCCS(=O)(=O)CCCC(F)(F)C(F)(F)F)cc3)C3c4ccc(O)cc4CCC3C1CC[C@@H]2O` (some centres not stated) displayed an IC50 in test [2] of 0.13 nM. On to `C[C@]12CCC3c4ccc(O)cc4C[C@@H](CCCCCCCC[C@H](CCCC(F)(F)C(F)(F)C(F)(F)C(F)(F)F)C(=O)O)C3C1CCC2=O` (some centres not stated), for which the IC50 in test [4] was found to be 24 nM; in test [5], 49.8 nM.

For the compound `CCNCCc1ccc(CN(CC)c2cc(OC)ccc2[C@@H]2CCc3cc(O)ccc3C2)cc1` [ELACESTRANT], the IC50 in test [6] came out at 4.2 nM.
